This note sets out measurements from US20200354411A1, “Chimeric Molecule for Targeting c-Myc in Cells” (priority 2017, published 2020).

“Also recorded” adds a separate entry of the source. Where two headings read alike, the source gives them in different places.

The test system of one assay is c-Myc. Nature of the assay: E-Box luciferase reporter, c-Myc transcriptional activity in A431 cells. It counts as cell-based. The settings on record: for EC50: A431 cells expressing luciferase upon E-Box promoter. The text has this: (§1) All cell lines come from ATCC. Lentiviruses were generated according to the manufacturer's instructions (Invitrogen). WT A431 cells were transduced with Cignal Lenti Myc Reporter (Qiagen) expressing Luciferase upon E-Box promoter and CMV-Renilla Control CLS-RCL expressing Renilla upon CMV promoter. Single clone was selected after colony isolation and Luciferase/Renilla expression level tested. All cell lines (A431 and HepG2) were maintained in high-glucose Dulbecco's modified Eagle's medium supplemented with 10% foetal calf serum at 37° C. in a 10% CO2 incubator. All experiments were performed on cells passaged fewer than 10 times after thawing.
40,000 A431-Ebox-luc-CMV-Ren cells were seeded in a 96-well plate (Falcon) 48 hours. Luminescence is detected using the Promega Dual-Glo luciferase assay system, according to the manufacturer's protocol and read using Tecan Infinite M200 microplate reader using 100 ms integration time. […]
(Reporter assays use an easily measured gene product as a stand-in for the process of interest.)

The test system of assay [1] is Renilla upon CMV promoter. Nature of the assay: CMV-Renilla control reporter in A431 cells. It counts as cell-based. The conditions noted are these: 50 nM, 6 hours.
From the text: as §1
40,000 A431-Ebox-luc-CMV-Ren cells were seeded in a 96-well plate (Falcon) 48 hours. Luminescence is detected using the Promega Dual-Glo luciferase assay system, according to the manufacturer's protocol and read using Tecan Infinite M200 microplate reader using 100 ms integration time.

For a further assay, the target named is T1, c-Myc/Max complex (Homo sapiens, UniProt P01106).
T1 construct: endogenous in cells; host or cells: A431
T1 sequence (P01106 whole entry, one chain of several): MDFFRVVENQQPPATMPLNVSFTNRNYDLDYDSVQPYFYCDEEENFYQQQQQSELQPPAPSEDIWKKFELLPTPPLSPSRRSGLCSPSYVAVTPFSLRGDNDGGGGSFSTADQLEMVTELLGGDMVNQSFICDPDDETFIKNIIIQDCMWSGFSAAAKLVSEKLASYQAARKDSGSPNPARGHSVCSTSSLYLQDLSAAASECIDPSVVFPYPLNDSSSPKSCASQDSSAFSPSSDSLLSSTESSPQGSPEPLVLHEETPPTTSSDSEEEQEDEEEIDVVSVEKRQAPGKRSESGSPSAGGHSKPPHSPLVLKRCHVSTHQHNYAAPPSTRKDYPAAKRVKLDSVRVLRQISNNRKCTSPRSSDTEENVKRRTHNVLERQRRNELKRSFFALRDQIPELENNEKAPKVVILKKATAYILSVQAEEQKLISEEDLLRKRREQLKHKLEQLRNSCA
Nature of the assay: c-Myc co-immunoprecipitation with Max. The conditions noted are these: 200 nM, 1 hour, A431. The format is cell-based. On the procedure:
A431 cells seeded at the desired densities in six-well dishes (Thermo Fisher Scientific) and incubated at 37° C., 10% CO2 for 16 hours. Cells were treated for 1 hour with mock, tPE or tPE-H1 200 nM before lysis in RIPA buffer for 20 minutes at 4° C. and centrifugation for 20 minutes at 15 000 g at 4° C. Soluble fractions were added with c-myc antibody (#32, Abcam) on orbital wheel for 4 hours at 4° C. Protein A Sepharose (GE Healthcare) was added and incubated overnight on orbital wheel at 4° C. After three washes, proteins were eluted in one volume of Laemmli blue 2X and heat-denaturated for 5 minutes at 95° C. Samples were run on SDS-PAGE before western blot. Membrane are blocked in milk and incubated with anti Max (#199489, Abcam) and anti c-Myc (#32072, Abcam).

The test system of assay [2] is Hepatocarcinoma HepG2 cells. Nature of the assay: DRAQ7 cell mortality assay. The format is cell-based. The settings on record: 24 hours. On the procedure:
25000 HepG2 cells were seeded per well in a 96-well plate. After incubation at 37° C. for 24 hours, DRAQ7 dye was prepared with 100 nM tPE-H1 at 500 times dilution
Cell mortality was tracked by acquiring nine fields of brightfield and far-red images at 20× magnification every 4 hours using the Operetta machine (Perkin-Elmer) for 3 to 5 days. The machine kept the plate incubated at 37° C. with 8% CO2.
(§2) It is of note that the experiments outlined above were also performed using the tPE-Omomcy fusion protein, results of which are shown in FIG. 2B, and FIGS. 12 to 15. The concentration of the tPE-Omomyc fusion protein is as stated on the x-axis in FIGS. 12 and 14; 200 nM for FIG. 2B; and 10 nM for FIGS. 13 and 15.

Assay [3] concerns HeLa, A431, MG63, MDA-MD231, and HCT116. Nature of the assay: Sensitivity of other cell lines (data not shown). It counts as cell-based.
The test system of assay [4] is Hepatocarcinoma HepG2 cells. Nature of the assay: HepG2 cell proliferation (IncuCyte live imaging). The format is cell-based. The conditions noted are these: for concentration above which no proliferation / absence of cell growth: HepG2, 2 weeks. The method, then:
(§3) Cells were seeded at 10 to 20% confluency. 24 hours later, the cells were incubated with different doses of tPE-H1 at 37° C., 10% CO2 for 14 days. Live imaging was performed using IncuCyte ZOOM® Live-Cell Analysis System. Bright field Images were taken every 6 hours. Images were analysed using IncuCyte ZOOM® Live-Cell Analysis software.
as §2

A further assay deals with c-Myc regulated genes. Nature of the assay: RT-PCRQ of c-Myc regulated transcripts. The format is cell-based, human. The settings on record: A431, 100 nM overnight (16 hours). The method, then:
400000 A431 cells were seeded in each well in a 6 well plate (Falcon) 24 hours before incubation with 100 nM tPE-H1 for 16 hours at 37° C. Total RNA was isolated using the RNeasy Mini Kit (Qiagen, Ref. no 74106) as described by manufacturer's protocol.
10 μg total RNA was reversed transcribed using SuperScript III First-Strand Synthesis System for RT-PCR (Invitrogen, Cat. no. 18080051) as described by manufacturer's protocol.
The relative expression of mRNAs of c-Myc regulated genes identified in RT^2 Profiler™ PCR Array Human MYC Targets (Qiagen, Cat. no. PAHS-177Z) was determined by real-time quantitative RT-PCR. Briefly, a PCR component mix containing cDNA, RT^2 SYBR Green Mastermix (Qiagen, Cat. no. 330523) and RNase-free water is prepared. 25 μl of the PCR reaction was added to each well in one array plate and subjected to a qPCR program using the ABI 7500. PCR cycling conditions comprised of an initial denaturation step at 95° C. for 10 minutes followed by an amplification program for 40 cycles of 15 seconds at 95° C., and 60 seconds at 60° C. with fluorescence acquisition at the end of each extension. The relative expression of each gene between treated and untreated samples is calculated using the comparative ΔΔCT method, using the mock treated sample as calibrator and housekeeping gene HPRT as internal control.

Assay [5] deals with A431 cells. Nature of the assay: A431 cell proliferation (IncuCyte live imaging). The format is cell-based. The method, then:
as §3

Assay [6] deals with A431 cells. Nature of the assay: Cell fractionation, subcellular location. The conditions noted are these: for subcellular location after cell fractionation: 200 nM, 1 hour, A431; for time to reach the nucleus: after incubation. It counts as cell-based. On the procedure:
Cells were seeded at the desired densities in six-well dishes (Thermo Fisher Scientific) and incubated at 37° C., 10% CO2 for 16 hours. Cells were treated for 1 hour with mock (untreated cells) or tPE-H1 200 nM before fractionation with Cell Surface Protein Isolation Kit (#89881, Thermo Fisher Scientific) according to the manufacturer's protocol. In addition, cytosolic fraction is centrifuge at 15 000 g for 15 minutes to remove membrane contaminants. Samples are denaturated in Laemmli blue 2X and heat-denaturated for 5 minutes at 95° C. Samples are loaded on SDS-PAGE followed by western blot.
as §2

Setting [7] is: 6 hours, read-out: EC50 on c-Myc transcriptional activity, CPP fused to H1.
Setting [8] is: 6 hours, read-out: EC50 on c-Myc transcriptional activity (c-Myc-dependent luciferase activity).
[9] abbreviates: tPE-H1 50 nM, A431 E-Box luciferase.
The mark [10] stands for this setting: tPE-Omomyc 10 nM, A431 E-Box luciferase.

Consider “cell targeting peptide Antenapedia fused to H1: RQIKIWFQNRRMKWKK NELKRAFAALRDQI [Int-H1, reference compound]”, for which the half-maximal effective concentration (EC50) was 200 µM in the assay with c-Myc (6 hours, listed as Antenapedia, read-out: EC50 on c-Myc transcriptional activity, CPP fused to H1) and about 200 µM with c-Myc (6 hours, listed as int-H1, read-out: EC50 on c-Myc transcriptional activity, CPP fused to H1).
For “cell targeting peptide Cadherin fused to H1: LLIILLRRRIRKQAHAHSK NELKRAFAALRDQI [CAD-H1, reference compound]”, the EC50 in the assay with c-Myc (6 hours, listed as Cadherin, read-out: EC50 on c-Myc transcriptional activity, CPP fused to H1) was 75 µM; in the assay with c-Myc (setting [7]), about 75 µM.
Consider “cell targeting peptide TAT fused to H1: GRKKRRQRRRPPQ NELKRAFAALRDQI [Tat-H1, reference compound]”, for which the EC50 was 500 µM in the assay on c-Myc (6 hours, listed as TAT, read-out: EC50 on c-Myc transcriptional activity, CPP fused to H1) and about 500 µM with c-Myc (setting [7]).
Consider “tPE-H1: fusion protein: PE domains Ia and II genetically fused to mutated H1 peptide (S6A, F8A), SEQ ID NO: 14”, for which the “effect on Renilla luciferase (CMV promoter control)” value in assay [1] is reported as “not affected”. Besides, the “effect on c-Myc/Max interaction (co-IP of Max with c-Myc)” value in the assay with c-Myc/Max complex is recorded as “disrupted the c-Myc/Max interaction”. Also, the “number of dead (DRAQ7 positive) cells” value in assay [2] (HepG2, 100 nM) is “cells death; also recorded: increase of the number of dead cells”. For the same substance, in assay [3] (all the cell lines tested), the “relative sensitivity of all cell lines tested, tPE-H1 versus tPE-Omomyc” value is given as “around 10 times”. Also, in the assay on c-Myc, the “more efficient than H1 fused to cell penetrating peptides (TAT, CAD, int)” value is “at least 1000 times”. For the same substance, the “decrease in Myc reporter activity” value in the assay on c-Myc (50 nM) is on record as over 90%. In addition, in the assay with c-Myc (50 nM, 6 hours, A431), the “effect on E-Box luciferase” value is “decrease of the luciferase”. Besides, in the assay on c-Myc (setting [8]), the EC50 is 0.025 µM. Moreover, in the assay on c-Myc (setting [9]), the “time of peak activity / maximal inhibition of luciferase” value came out at 8 h and the “time over which maximal inhibition was stable” value is reported as “more than 24 hours”. Moreover, in assay [4], the “concentration sufficient to block HepG2 cell proliferation and induce cell death/apoptosis” value was found to be 100 nM; the “concentration above which no proliferation / absence of cell growth” value is listed as “above 50 nM”. The cell proliferation result in [4] (HepG2, 10 nM and 25 nM, over 2 weeks) is listed as “slower cell proliferation”. Also, the “mRNA amount of transcripts regulated by c-Myc” value with c-Myc regulated genes was “decrease of numerous upregulated genes under tPE-H1 treatment and an increase of numerous down regulated genes”. In the assay on A431 cells [5] (A431, 50 nM and 100 nM, over 2 weeks), the cell proliferation entry was “slower cell proliferation”. Besides, in the assay on A431 cells [5] (A431, 50 to 400 nM), the “cell proliferation, dose response” value is reported as “dose dependent decrease in cell proliferation”. In addition, the “concentration above which no proliferation / total absence of growth” value in the assay with A431 cells [5] (A431, over 2 weeks) is on record as “above 200 nM”. In addition, in the assay with A431 cells [6], the “subcellular location after cell fractionation” value is “location in the nucleus” and the “time to reach the nucleus” value is reported as “less than 1 hour”.
On to “tPE-Omomyc: fusion protein: PE domains Ia and II genetically fused to Omomyc peptide, SEQ ID NO: 15”, for which the “number of dead (DRAQ7 positive) cells” value in [2] (HepG2, 10 nM) is “significant increase; also recorded: increase of the number of dead cells”. The “concentration to which cell lines were sensitive” value in assay [3] (HeLa, A431, MG63, MDA-MD231, HCT116, data not shown) is reported as “about 10 nM”. Besides, the EC50 in the assay on c-Myc (setting [8]) was determined as 0.005 µM. For the same substance, in the assay with c-Myc (setting [10]), the “time of peak activity / maximal inhibition of luciferase” value is 16 h and the “time over which maximal inhibition is stable” value is on record as “more than 24 hours”. In assay [4], the “concentration sufficient to block HepG2 cell proliferation and induce cell death/apoptosis” value turned out to be 10 nM; the “concentration above which no proliferation / absence of cell growth” value is listed as “above 10 nM”. Moreover, the cell proliferation entry in [4] (HepG2, 2.5 nM and 5 nM, 2 weeks) is “slower cell proliferation”. In assay [4] (HepG2, 1 to 10 nM), the “cell proliferation, different doses” value is on record as “decrease in cell proliferation”. In the assay with A431 cells [6], the “subcellular location after cell fractionation” value is on record as “located in nuclear fraction; also recorded: in the nuclear fraction” and the “time to reach the nucleus” value was at most 1 h.

For orientation: EC50 means the concentration needed to bring the measured effect to its halfway point.
